A short description of data set [1]: in vivo. The settings on record: male, rat, plasma, 6 mg/rat.
Procedure: (§1) Plasma samples were taken before the administration of the compound and 0.5 hours, 24 hours, 4, 6 and 8 days after treatment.
(§2) Octreotide was extracted from plasma and analyzed with LC-MS-MS apparatus vs. a calibration curve.
For data set [2] the following is noted: male rats, 6 mg/rat of microemulsion of Example 11.
Procedure: as §1, §2

In data set [1], `C[C@@H](O)[C@@H]1NC(=O)[C@H](CCCCN)NC(=O)[C@@H](Cc2c[nH]c3ccccc23)NC(=O)[C@H](Cc2ccccc2)NC(=O)[C@@H](NC(=O)[C@H](N)Cc2ccccc2)CSSC[C@@H](C(=O)N[C@H](CO)[C@@H](C)O)NC1=O` [Octreotide] came in with a level at 0.5 h of 0.539 µg/mL, a level at 24 h of 0.0402 µg/mL, a level at 96 h of 0.0625 µg/mL and a level at 144 h of 0.0045 µg/mL. Besides, the level at 192 h in data set [1] worked out at 0.0076 µg/mL. In data set [2], the “Time until which significant Octreotide plasma levels were found after treatment” value is recorded as 8 days.

(Values after patent publication US7157099B2, “Sustained release pharmaceutical compositions for the parenteral administration of hydrophilic compounds” (Italfarmaco S.p.A., priority 2000, dated 2007).)
